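Test compounds were applied to cells in 96-well plates for 48 hours at 5 doses. At the GI50, growth is halved.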 The source made the active and inactive calls. No stated cut-off is given here; in the data, active = GI50 up to about 1.1 µM and inactive = higher.
How the values were obtained:
Assay in all cases: NCI anticancer screen, dose series, 48 h
[1] = system: 786-0
[2] = system: A498
[3] = system: A549
[4] = system: ACHN
[5] = system: BT-549
[6] = system: CAKI-1
[7] = system: CCRF-CEM
[8] = system: COLO 205
[9] = system: EKVX
[10] = system: HCC 2998
[11] = system: HCT-15
[12] = system: HOP-62
[13] = system: HOP-92
[14] = system: HT-29
[15] = system: Hs-578T
[16] = system: IGROV-1
[17] = system: KM12
[18] = system: LOX IMVI
[19] = system: M14
[20] = system: MCF7
[21] = system: MDA-MB-231
[22] = system: MDA-MB-435
[23] = system: MOLT-4
[24] = system: Malme-3M
[25] = system: NCI-H23
[26] = system: NCI-H460
[27] = system: NCI-H522
[28] = system: NCI/ADR-RES
[29] = system: OVCAR-5
[30] = system: OVCAR-8
[31] = system: PC-3
[32] = system: RPMI-8226
[33] = system: SF-539
[34] = system: SK-MEL-28
[35] = system: SK-MEL-5
[36] = system: SK-OV-3
[37] = system: SN12C
[38] = system: SNB-19
[39] = system: SNB-75
[40] = system: SR
[41] = system: SW-620
[42] = system: TK-10
[43] = system: U-251
[44] = system: UACC-257
[45] = system: UACC-62
[46] = system: UO-31
[47] = system: DU-145
[48] = system: HCT-116
[49] = system: HL-60
[50] = system: K562
[51] = system: MDA-N
[52] = system: NCI-H226
[53] = system: OVCAR-3
[54] = system: RXF 393
[55] = system: SF-268
[56] = system: SF-295
[57] = system: T47D
[58] = system: OVCAR-4
[59] = system: SK-MEL-2

For `Nc1ccc2nc(-c3cccc(C(F)(F)F)c3)cc(O)c2c1`, the GI50 [1] was 44.7 µM (inactive), the GI50 [2] was 29.1 µM (inactive) and the GI50 [3] was 71.4 µM (inactive). For the same compound, the GI50 [4] was 80.2 µM (inactive), the GI50 [5] was 23.6 µM (inactive) and the GI50 [6] was 29.6 µM (inactive). For the same compound, the GI50 [7] was 28.8 µM (inactive), the GI50 [8] was 27.2 µM (inactive) and the GI50 [9] was 44.7 µM (inactive). The GI50 [10] was 60.1 µM (inactive), the GI50 [11] was 34.8 µM and the GI50 [12] was 47.2 µM (inactive). The GI50 [13] was > 100 µM (inactive), the GI50 [14] was 34.1 µM (inactive) and the GI50 [15] was 28.9 µM (inactive). For the same compound, the GI50 [16] was 33.5 µM (inactive), the GI50 [17] was 36.2 µM (inactive) and the GI50 [18] was 51.9 µM (inactive). For the same compound, the GI50 [19] was 59.6 µM (inactive), the GI50 [20] was 28.2 µM (inactive) and the GI50 [21] was 50.7 µM (inactive). For the same compound, the GI50 [22] was 20.3 µM (inactive), the GI50 [23] was 40.4 µM (inactive) and the GI50 [24] was 40.6 µM (inactive). For the same compound, the GI50 [25] was 54.6 µM (inactive), the GI50 [26] was 29.8 µM (inactive) and the GI50 [27] was 61.8 µM (inactive). For the same compound, the GI50 [28] was 92.9 µM (inactive), the GI50 [29] was 43.2 µM (inactive) and the GI50 [30] was 47 µM (inactive). For the same compound, the GI50 [31] was 23.8 µM (inactive), the GI50 [32] was 38.5 µM (inactive) and the GI50 [33] was 19.6 µM (inactive). The GI50 [34] was 53.5 µM (inactive), the GI50 [35] was 22.9 µM (inactive) and the GI50 [36] was 44.8 µM (inactive). For the same compound, the GI50 [37] was 61.8 µM (inactive), the GI50 [38] was 46.1 µM (inactive) and the GI50 [39] was 27.3 µM (inactive). The GI50 [40] was 25.1 µM (inactive), the GI50 [41] was 62.1 µM (inactive) and the GI50 [42] was 58.2 µM (inactive). For the same compound, the GI50 [43] was 49.3 µM (inactive), the GI50 [44] was 51.2 µM (inactive) and the GI50 [45] was 53.2 µM (inactive). For the same compound, the GI50 [46] was 37.4 µM (inactive).
With `COCc1cc2c(cc1/C=C/[N+](=O)[O-])OCO2` the GI50 [1] was 16.9 µM (inactive), the GI50 [2] was 17 µM (inactive) and the GI50 [3] was 17.1 µM (inactive). The GI50 [4] was 17.1 µM (inactive), the GI50 [6] was 19.6 µM (inactive) and the GI50 [7] was 1.62 µM (inactive). The GI50 [8] was 18.2 µM (inactive), the GI50 [47] was 19.4 µM (inactive) and the GI50 [9] was 17.8 µM (inactive). For the same compound, the GI50 [10] was 17.5 µM (inactive), the GI50 [48] was 17.9 µM (inactive) and the GI50 [11] was 19.7 µM. The GI50 [49] was 23.4 µM (inactive), the GI50 [12] was 20.7 µM (inactive) and the GI50 [13] was 18.8 µM (inactive). For the same compound, the GI50 [14] was 18.5 µM (inactive), the GI50 [15] was 19.5 µM (inactive) and the GI50 [16] was 22.8 µM (inactive). The GI50 [50] was > 100 µM (inactive), the GI50 [17] was 20.8 µM (inactive) and the GI50 [18] was 27.5 µM (inactive). For the same compound, the GI50 [19] was 16.7 µM (inactive), the GI50 [20] was 29.7 µM (inactive) and the GI50 [21] was 20.4 µM (inactive). For the same compound, the GI50 [22] was 18.3 µM (inactive), the GI50 [51] was 17.7 µM (inactive) and the GI50 [23] was > 100 µM (inactive). The GI50 [52] was 19.8 µM (inactive), the GI50 [25] was 27.4 µM (inactive) and the GI50 [26] was 17.7 µM (inactive). For the same compound, the GI50 [27] was 19.2 µM (inactive), the GI50 [28] was 25.2 µM (inactive) and the GI50 [53] was 19.4 µM (inactive). The GI50 [29] was 16.4 µM (inactive), the GI50 [30] was 23 µM (inactive) and the GI50 [31] was 12.1 µM (inactive). For the same compound, the GI50 [32] was 76 µM (inactive), the GI50 [54] was 18 µM (inactive) and the GI50 [55] was 20.7 µM (inactive). For the same compound, the GI50 [56] was 21.6 µM (inactive), the GI50 [33] was 20.7 µM (inactive) and the GI50 [34] was 11 µM (inactive). The GI50 [35] was 19.4 µM (inactive), the GI50 [36] was 17.9 µM (inactive) and the GI50 [37] was 18.5 µM (inactive). The GI50 [39] was 17.9 µM (inactive), the GI50 [40] was 53.3 µM (inactive) and the GI50 [41] was 17.7 µM (inactive). The GI50 [57] was 21.1 µM (inactive), the GI50 [42] was 16.9 µM (inactive) and the GI50 [43] was 17.7 µM (inactive). The GI50 [44] was 16.8 µM (inactive), the GI50 [45] was 17.9 µM (inactive) and the GI50 [46] was 17 µM (inactive).
In the case of `OCCN(CCO)c1nc(N2CCCCC2)c2nc(N(CCO)CCO)nc(N3CCCCC3)c2n1` [DIPYRIDAMOLE], the GI50 [1] is reported as 31.9 µM (inactive), the GI50 [3] is reported as 38.5 µM (inactive) and the GI50 [4] is reported as 33.9 µM (inactive). For the same compound, the GI50 [6] was 45.5 µM (inactive), the GI50 [7] was 20 µM (inactive) and the GI50 [8] was 41.9 µM (inactive). The GI50 [47] was 48.8 µM (inactive), the GI50 [9] was 25.6 µM (inactive) and the GI50 [10] was 16.3 µM (inactive). The GI50 [48] was 40.3 µM (inactive), the GI50 [11] was 31.4 µM and the GI50 [49] was 15.7 µM (inactive). The GI50 [12] was 29 µM (inactive), the GI50 [13] was 12.1 µM (inactive) and the GI50 [14] was 19.5 µM (inactive). The GI50 [15] was 31.8 µM (inactive), the GI50 [16] was 66.7 µM (inactive) and the GI50 [50] was 24.8 µM (inactive). The GI50 [17] was 43 µM (inactive), the GI50 [18] was 37 µM (inactive) and the GI50 [19] was 55.8 µM (inactive). The GI50 [20] was > 10 µM (inactive), the GI50 [21] was 43.3 µM (inactive) and the GI50 [22] was 69.7 µM (inactive). The GI50 [51] was 45.8 µM (inactive), the GI50 [23] was 24.4 µM (inactive) and the GI50 [24] was 20.5 µM (inactive). The GI50 [52] was 48.9 µM (inactive), the GI50 [25] was 65.3 µM (inactive) and the GI50 [26] was 28 µM (inactive). For the same compound, the GI50 [27] was 17.9 µM (inactive), the GI50 [28] was 22 µM (inactive) and the GI50 [53] was 12.4 µM (inactive). For the same compound, the GI50 [58] was 59.4 µM (inactive), the GI50 [29] was 90.8 µM (inactive) and the GI50 [30] was 29.2 µM (inactive). The GI50 [31] was 33.3 µM (inactive), the GI50 [32] was > 10 µM (inactive) and the GI50 [34] was 43 µM (inactive). For the same compound, the GI50 [59] was 34.6 µM (inactive), the GI50 [35] was 21.6 µM (inactive) and the GI50 [37] was 34 µM (inactive). For the same compound, the GI50 [40] was 3.46 µM (inactive), the GI50 [41] was 58.3 µM (inactive) and the GI50 [57] was 35.6 µM (inactive). The GI50 [42] was 17.1 µM (inactive), the GI50 [44] was 39.3 µM (inactive) and the GI50 [46] was 33 µM (inactive).
For `c1ccc2c3nnc(c2c1)SCCSCCCSCCS3`, the GI50 [1] was 29.1 µM (inactive), the GI50 [2] was 45.1 µM (inactive) and the GI50 [3] was 91 µM (inactive). The GI50 [4] was 61.1 µM (inactive), the GI50 [6] was 39.7 µM (inactive) and the GI50 [7] was > 100 µM (inactive). The GI50 [8] was > 100 µM (inactive), the GI50 [47] was > 100 µM (inactive) and the GI50 [9] was > 100 µM (inactive). The GI50 [10] was > 100 µM (inactive), the GI50 [48] was > 100 µM (inactive) and the GI50 [11] was greater than 100 µM. For the same compound, the GI50 [49] was > 100 µM (inactive), the GI50 [12] was 29.4 µM (inactive) and the GI50 [13] was 37.2 µM (inactive). The GI50 [14] was > 100 µM (inactive), the GI50 [15] was 32.4 µM (inactive) and the GI50 [16] was 34.4 µM (inactive). The GI50 [50] was > 100 µM (inactive), the GI50 [17] was > 100 µM (inactive) and the GI50 [18] was > 100 µM (inactive). The GI50 [19] was > 100 µM (inactive), the GI50 [20] was > 100 µM (inactive) and the GI50 [21] was 22.1 µM (inactive). The GI50 [22] was > 100 µM (inactive), the GI50 [51] was > 100 µM (inactive) and the GI50 [24] was 29.6 µM (inactive). The GI50 [52] was 35.6 µM (inactive), the GI50 [25] was > 100 µM (inactive) and the GI50 [26] was > 100 µM (inactive). For the same compound, the GI50 [27] was 50.9 µM (inactive), the GI50 [28] was 75.3 µM (inactive) and the GI50 [53] was 38 µM (inactive). For the same compound, the GI50 [58] was 2.9 µM (inactive), the GI50 [29] was > 100 µM (inactive) and the GI50 [30] was 56.9 µM (inactive). The GI50 [31] was 43.1 µM (inactive), the GI50 [54] was 38.5 µM (inactive) and the GI50 [55] was 43.5 µM (inactive). For the same compound, the GI50 [56] was 31.4 µM (inactive), the GI50 [33] was 12.6 µM (inactive) and the GI50 [34] was > 100 µM (inactive). For the same compound, the GI50 [59] was 58.7 µM (inactive), the GI50 [35] was 54.1 µM (inactive) and the GI50 [36] was 27.8 µM (inactive). The GI50 [37] was 53.8 µM (inactive), the GI50 [38] was 26.5 µM (inactive) and the GI50 [39] was 3.52 µM (inactive). The GI50 [41] was > 100 µM (inactive), the GI50 [57] was > 100 µM (inactive) and the GI50 [42] was 48 µM (inactive). The GI50 [43] was 36.1 µM (inactive), the GI50 [44] was > 100 µM (inactive) and the GI50 [45] was 57.5 µM (inactive). For the same compound, the GI50 [46] was 44.3 µM (inactive).

— ChEMBL document CHEMBL1201862, “PubChem BioAssay data set” (2004)
